Assay results from the supplement of paper PMC13380429.

Assays:
Details in all cases: 72 h
Caco-2 [1] = experiment: cell viability relative to DMSO; higher = less toxic
Calu-3 [2] = experiment: as above
HepG2 [3] = experiment: as above
Vero E6 [4] = experiment: as above
Caco-2 [5] = experiment: relative viability EC50 (midpoint between 100% and the lowest measured viability); higher = less toxic
Calu-3 [6] = experiment: as above
HepG2 [7] = experiment: as above
Vero E6 [8] = experiment: as above
Caco-2 [9] = experiment: drug sensitivity score (DSS) for viability; higher = more toxic; extreme values may be limits of the assay
Calu-3 [10] = experiment: as above
HepG2 [11] = experiment: as above
Vero E6 [12] = experiment: as above
U2OS [13] = experiment: cell viability relative to DMSO; higher = less toxic
U2OS [14] = experiment: relative viability EC50 (midpoint between 100% and the lowest measured viability); higher = less toxic
U2OS [15] = experiment: drug sensitivity score (DSS) for viability; higher = more toxic; extreme values may be limits of the assay

SMILES | cell viability (Caco-2 [1]; 1 nM) [%] | cell viability (Caco-2 [1]; 10 nM) [%] | cell viability (Caco-2 [1]; 100 nM) [%] | cell viability (Caco-2 [1]; 1000 nM) [%] | cell viability (Caco-2 [1]; 10000 nM) [%] | cell viability (Calu-3 [2]; 1 nM) [%] | cell viability (Calu-3 [2]; 10 nM) [%] | cell viability (Calu-3 [2]; 100 nM) [%] | cell viability (Calu-3 [2]; 1000 nM) [%] | cell viability (Calu-3 [2]; 10000 nM) [%] | cell viability (HepG2 [3]; 1 nM) [%] | cell viability (HepG2 [3]; 10 nM) [%] | cell viability (HepG2 [3]; 100 nM) [%] | cell viability (HepG2 [3]; 1000 nM) [%] | cell viability (HepG2 [3]; 10000 nM) [%] | cell viability (Vero E6 [4]; 1 nM) [%] | cell viability (Vero E6 [4]; 10 nM) [%] | cell viability (Vero E6 [4]; 100 nM) [%] | cell viability (Vero E6 [4]; 1000 nM) [%] | cell viability (Vero E6 [4]; 10000 nM) [%] | relative viability EC50 (Caco-2 [5]) [µM] | relative viability EC50 (Calu-3 [6]) [µM] | relative viability EC50 (HepG2 [7]) [µM] | relative viability EC50 (Vero E6 [8]) [µM] | drug sensitivity score (Caco-2 [9]) | drug sensitivity score (Calu-3 [10]) | drug sensitivity score (HepG2 [11]) | drug sensitivity score (Vero E6 [12]) | cell viability (U2OS [13]; 1 nM) [%] | cell viability (U2OS [13]; 10 nM) [%] | cell viability (U2OS [13]; 100 nM) [%] | cell viability (U2OS [13]; 1000 nM) [%] | cell viability (U2OS [13]; 10000 nM) [%] | relative viability EC50 (U2OS [14]) [µM] | drug sensitivity score (U2OS [15])
N=C(N)SCCc1c[nH]cn1 [imetit] | 97.2 | 99.1 | 97 | 100 | 93.5 | 97.8 | 109 | 97 | 93.7 | 87.8 | 112 | 111 | 95.9 | 95.2 | 112 | 103 | 103 | 103 | 97.1 | 101 | > 10 | > 10 | > 10 | > 10 | 0 | 0.1 | 0 | 0 |  |  |  |  |  |  | 
Cc1nnc(NS(=O)(=O)c2ccc(N)cc2)s1 [sulfamethizole] | 88.1 | 85.7 | 98.9 | 93.6 | 99 | 96.3 | 98.4 | 96.7 | 99.2 | 105 | 102 | 111 | 98 | 108 | 90.4 |  |  |  |  |  | > 10 | > 10 | > 10 |  | 0 | 0 | 0 |  | 103 | 98.1 | 103 | 99.2 | 99.2 | > 10 | 0
O/N=C/c1cc[n+](COC[n+]2ccc(/C=N/O)cc2)cc1 [obidoxime] | 94.5 | 99.4 | 94.4 | 94.7 | 94.6 | 102 | 91.8 | 100 | 84.1 | 106 |  |  |  |  |  |  |  |  |  |  | > 10 | > 10 |  |  | 0 | 0 |  |  | 97.2 | 101 | 94.9 | 95.2 | 102 | > 10 | 0
N[C@@H](CCC(=O)N[C@@H](CS)C(=O)NCC(=O)O)C(=O)O [glutathione] | 92.7 | 90.7 | 105 | 93.6 | 99.4 | 98.1 | 93.2 | 98.8 | 101 | 99.7 | 108 | 106 | 97.3 | 99.3 | 104 |  |  |  |  |  | > 10 | > 10 | > 10 |  | 0 | 0 | 0 |  | 95.3 | 97.3 | 99.5 | 96.6 | 102 | > 10 | 0
CCc1ccc(/C=C2/SC(=S)NC2=O)cc1 | 102 | 85.3 | 101 | 108 | 93.3 | 101 | 87 | 97.9 | 93.4 | 103 | 98.2 | 106 | 93.7 | 95.9 | 95.6 |  |  |  |  |  | > 10 | > 10 | > 10 |  | 0 | 0 | 0 |  | 97.9 | 95.9 | 99.8 | 94.9 | 96.7 | > 10 | 0
CCC1=C[C@@H]2CN3CCc4c([nH]c5ccccc45)[C@@](C(=O)OC)(C2)[C@@H]13 [catharanthine] | 93.7 | 92.6 | 95.9 | 103 | 91.9 | 98.5 | 107 | 98.4 | 90.9 | 101 |  |  |  |  |  | 103 | 93.4 | 98.4 | 101 | 110 | > 10 | > 10 |  | > 10 | 0 | 0 |  | 0 | 92.3 | 100 | 95.7 | 97.1 | 98.4 | > 10 | 0
Cc1cn([C@H]2C[C@H](N=[N+]=[N-])[C@@H](CO)O2)c(=O)[nH]c1=O [zidovudine] | 94.9 | 92.6 | 105 | 98 | 98 | 107 | 89.6 | 101 | 98.9 | 103 | 101 | 109 | 99 | 94.6 | 104 |  |  |  |  |  | > 10 | > 10 | > 10 |  | 0 | 0 | 0 |  | 103 | 104 | 95.2 | 103 | 94.3 | > 10 | 0
CCCn1c(=O)c2nc(C34CC5CC(CC3C5)C4)[nH]c2n(CCC)c1=O [KW-3902] | 95.9 | 94.4 | 101 | 95.1 | 82.5 | 83.8 | 89.3 | 92.6 | 96.6 | 100 | 94.2 | 92.9 | 98.2 | 101 | 91.6 |  |  |  |  |  | > 10 | > 10 | > 10 |  | 0.9 | 0 | 0 |  | 98.8 | 96.5 | 100 | 99.5 | 102 | > 10 | 0
CCC1(c2ccccc2)C(=O)N(COC)C(=O)N(COC)C1=O [eterobarb] | 102 | 90.8 | 95.3 | 105 | 111 | 111 | 88.2 | 110 | 88.5 | 105 | 105 | 114 | 97.4 | 100 | 88.4 | 112 | 110 | 102 | 106 | 86.8 | > 10 | > 10 | > 10 | > 10 | 0 | 0 | 0 | 0 |  |  |  |  |  |  | 
CCC1(c2c[nH]cn2)Cc2ccccc2C1 [atipamezole] | 104 | 115 | 104 | 100 | 108 | 96.9 | 101 | 94.9 | 106 | 93.5 | 102 | 95.5 | 111 | 100 | 109 |  |  |  |  |  | > 10 | > 10 | > 10 |  | 0 | 0 | 0 |  |  |  |  |  |  |  | 
O=c1[nH]nc2c3c(cccc13)N=C(CN1Cc3ccccc3C1)N2 [E7449] | 127 | 104 | 102 | 99 | 89.1 | 109 | 99.1 | 98.6 | 97.6 | 88.6 | 95 | 103 | 98.6 | 95.9 | 59.8 | 102 | 100 | 96.3 | 96.3 | 83.7 | > 10 | > 10 |  | > 10 | 0 | 0.1 | 2.7 | 0.6 | 105 | 106 | 106 | 94.7 | 87.3 | > 10 | 0.3
CO/N=C1\C[C@]2(C[C@@H]3C[C@@H](C/C=C(\C)C[C@@H](C)/C=C/C=C4\CO[C@@H]5[C@H](O)C(C)=C[C@@H](C(=O)O3)[C@]45O)O2)O[C@H](/C(C)=C/C(C)C)[C@H]1C [moxidectin] | 95.3 | 94 | 102 | 88.2 | 62.1 | 90.7 | 97.3 | 94.2 | 103 | 89.8 | 101 | 106 | 102 | 105 | 96.7 | 96.4 | 96.9 | 88.7 | 96.4 | 101 |  | > 10 | > 10 | > 10 | 3.6 | 0 | 0 | 0 | 103 | 92.1 | 93.5 | 94.6 | 94.7 | > 10 | 0
CC(=O)O[C@]1(C(C)=O)CC[C@H]2[C@@H]3CCC4=CC(=O)CCC4=C3[C@@H](c3ccc(N(C)C)cc3)C[C@@]21C [Ulipristal acetate] | 94.7 | 94.7 | 98.3 | 97.9 | 67.8 | 105 | 106 | 97.1 | 104 | 110 | 110 | 110 | 103 | 97.9 | 104 | 104 | 98.2 | 99.3 | 97 | 98.3 |  | > 10 | > 10 | > 10 | 1.8 | 0 | 0 | 0 | 103 | 103 | 99.1 | 99.6 | 94.9 | > 10 | 0
COc1ccc(S(=O)(=O)N2CCCN(S(=O)(=O)c3ccc(OC)c(OC)c3)CC2)cc1OC | 89.4 | 90.5 | 94.5 | 102 | 108 | 89.1 | 84.7 | 102 | 94.4 | 92.1 | 99.3 | 100 | 79.4 | 98.7 | 110 |  |  |  |  |  | > 10 | > 10 | > 10 |  | 0 | 0 | 0 |  | 98.6 | 96.1 | 99.3 | 100 | 97 | > 10 | 0
CC(C)(CO)CCCCCCC(C)(C)CO [gemcadiol] | 89.7 | 129 | 113 | 128 | 92.2 | 97.4 | 93.5 | 100 | 94.3 | 105 |  |  |  |  |  | 93.8 | 102 | 102 | 103 | 108 | > 10 | > 10 |  | > 10 | 0 | 0 |  | 0 | 97 | 94.5 | 103 | 96.8 | 98.7 | > 10 | 0
Cc1cn2nc([C@@H]3CCCCN3C(=O)c3cc(Cl)ccc3NS(C)(=O)=O)cc2nc1N1CC[C@H](N)C1 [presatovir] | 93.8 | 95.2 | 102 | 96.2 | 53.9 | 102 | 107 | 102 | 94 | 98.5 | 98.8 | 110 | 104 | 106 | 105 | 98.8 | 103 | 94.4 | 96.8 | 102 |  | > 10 | > 10 | > 10 | 3 | 0 | 0 | 0 | 101 | 97 | 100 | 98.3 | 76.6 | > 10 | 1.1
